Test results reported in ChEMBL document CHEMBL1128163, “Synthesis and biological evaluation of 4-heterotribactams” (Bioorg Med Chem Lett, 1995).
The source made the active and inactive calls. The calls are words filed in the database; no cut-off is given here.

How the values were obtained:
Type in all cases: functional, organism-based
Pseudomonas aeruginosa [1] = assay: Tested for broad spectrum antibacterial activity against Pseudomonas aeruginosa; A - active compound
Escherichia coli [2] = assay: Antibacterial activity against Escherichia coli 1850-WT strain at 16 ug/mL concentration; A - low activity was observed
Escherichia coli [3] = assay: Antibacterial activity against Escherichia coli 1852-PM strain at 16 ug/mL concentration; A - low activity was observed
Escherichia coli [4] = assay: Antibacterial activity against Escherichia coli 1919-PM/TEM-1 strains at a concentration of at 16 ug/mL concentration; A - low activity was observed
Escherichia coli [5] = assay: Antibacterial activity against Escherichia coli 851 at 16 ug/mL concentration; A - low activity was observed
Pseudomonas aeruginosa [6] = assay: Antibacterial activity against Pseudomonas aeruginosa at concentrations >32 ug/mL; inactive
Streptococcus pneumoniae = assay: Antibacterial activity against Streptococcus pneumoniae at a concentration of 2 ug/mL; A - weak activity was observed
Staphylococcus aureus [7] = assay: Antibacterial activity against resistant strains of Staphylococcus aureus at 2-32 ug/mL concentration; A - weak activity was observed
Staphylococcus aureus [8] = assay: Antibacterial activity against sensitive strains of Staphylococcus aureus at 2-32 ug/mL concentration; A - weak activity was observed
[9] = test system: Staphylococcus epidermidis; assay: Antibacterial activity against Staphylococcus epidermidis at 2 ug/mL concentration; A - weak activity was observed

| SMILES | Activity (Pseudomonas aeruginosa [1]) | Activity (Escherichia coli [2]) | Activity (Escherichia coli [3]) | Activity (Escherichia coli [4]) | Activity (Escherichia coli [5]) | Activity (Pseudomonas aeruginosa [6]) | Activity (Streptococcus pneumoniae) | Activity (Staphylococcus aureus [7]) | Activity (Staphylococcus aureus [8]) | Activity [9] |
| --- | --- | --- | --- | --- | --- | --- | --- | --- | --- | --- |
| C[C@@H](O)[C@H]1C(=O)N2C(C(=O)O)=C(S[C@@H]3CN[C@H](C(=O)N(C)C)C3)[C@H](C)[C@H]12 | Low activity |  |  |  |  |  |  |  |  |  |
| C[C@@H](O)[C@H]1C(=O)N2C(C(=O)O)=C(SCCN)C[C@H]12 | Low activity |  |  |  |  |  |  |  |  |  |
| C[C@@H](O)[C@H]1C(=O)N2C(C(=O)O)=C3SCC[C@H]3[C@H]12 |  | Low activity | Low activity | Low activity | Low activity | inactive | Low activity | Low activity | Low activity | Low activity |
